Holding throughout (format): cell-based
The target of one assay is T1, GIP receptor (Homo sapiens, UniProt P48546).
T1 construct: expressed in transfected cells; host or cells: HEK293
T1 sequence (P48546 22-466): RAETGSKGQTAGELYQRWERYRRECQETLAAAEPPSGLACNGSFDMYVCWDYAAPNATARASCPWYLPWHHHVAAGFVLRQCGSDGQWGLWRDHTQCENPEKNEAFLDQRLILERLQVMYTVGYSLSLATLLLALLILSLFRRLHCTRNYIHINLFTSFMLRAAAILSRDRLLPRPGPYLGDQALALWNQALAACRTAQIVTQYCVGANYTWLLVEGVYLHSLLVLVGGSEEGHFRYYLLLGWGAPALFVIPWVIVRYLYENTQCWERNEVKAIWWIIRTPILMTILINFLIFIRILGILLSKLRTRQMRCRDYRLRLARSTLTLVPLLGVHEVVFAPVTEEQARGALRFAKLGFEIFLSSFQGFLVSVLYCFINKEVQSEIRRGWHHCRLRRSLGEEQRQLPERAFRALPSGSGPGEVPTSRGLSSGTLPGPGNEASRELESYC
Briefly: in vitro agonist activity at the GIP receptor (cAMP luciferase reporter, HEK293 cells). Conditions: in vitro agonist activity; read-out: EC50 (nM) at GIP receptor. As for the experimental part: It is understood that a lower EC50 indicates higher activity or potency at the receptor. […] The ability of each peptide to induce cAMP was measured in a firefly luciferase-based reporter assay. […] At the end of the incubation, 100 μL of LucLite luminescence substrate reagent (Perkin Elmer, Wellesley, Mass.) were added to each well. […] In some instances, the in vitro agonist activity at the GIP receptor was also tested.
For orientation: Reporter assays use an easily measured gene product as a stand-in for the process of interest.

For a further assay, the target named is T2, glucagon receptor (Homo sapiens, UniProt P47871).
T2 construct: expressed in transfected cells; host or cells: HEK293
T2 sequence (P47871 26-477, species assumed): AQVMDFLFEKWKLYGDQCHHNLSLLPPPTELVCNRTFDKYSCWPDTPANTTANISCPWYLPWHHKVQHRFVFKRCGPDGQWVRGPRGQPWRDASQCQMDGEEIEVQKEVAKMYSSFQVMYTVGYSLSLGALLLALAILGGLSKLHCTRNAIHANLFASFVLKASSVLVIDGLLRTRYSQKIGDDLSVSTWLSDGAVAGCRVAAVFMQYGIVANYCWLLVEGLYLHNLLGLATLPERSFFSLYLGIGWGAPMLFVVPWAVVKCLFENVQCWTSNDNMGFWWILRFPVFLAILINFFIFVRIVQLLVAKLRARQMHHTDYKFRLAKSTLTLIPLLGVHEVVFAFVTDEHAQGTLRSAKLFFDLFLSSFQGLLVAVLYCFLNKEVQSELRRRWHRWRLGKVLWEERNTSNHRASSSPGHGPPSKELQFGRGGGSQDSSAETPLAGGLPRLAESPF
The assay can be described thus: cAMP induction, firefly luciferase reporter assay in HEK293 cells co-transfected with the glucagon receptor. Conditions: HEK293 cells, cAMP-responsive luciferase reporter, 5 hours incubation. As for the experimental part:
(§1) The ability of each peptide to induce cAMP was measured in a firefly luciferase-based reporter assay. […] At the end of the incubation, 100 μL of LucLite luminescence substrate reagent (Perkin Elmer, Wellesley, Mass.) were added to each well. […] In some instances, the in vitro agonist activity at the GIP receptor was also tested.

A further assay concerns the target T3, GLP-1 receptor (Homo sapiens, UniProt P43220).
T3 construct: expressed in transfected cells; host or cells: HEK293
The assay can be described thus: cAMP induction, firefly luciferase reporter assay in HEK293 cells co-transfected with the GLP-1 receptor. Conditions: HEK293 cells, cAMP-responsive luciferase reporter, 5 hours incubation. As to the method: as §1

Numbered stars: 1 amine (or outer) side, 2 acyl side, 3 side chain; on linkers, the order of the positions; unused ones are H or OH. Square brackets hold non-standard residues; d marks the D form. Side chains are listed from the residue outwards. Peptide text beside a SMILES is read from it. * marks the point of attachment. γGlu = O=C(O)[C@H](CCC(=O)[*:2])N[*:1]; Palmitoyl = CCCCCCCCCCCCCCCC(=O)*; Aib = CC(C)(N)C(=O)O

T3 sequence (P43220 24-463): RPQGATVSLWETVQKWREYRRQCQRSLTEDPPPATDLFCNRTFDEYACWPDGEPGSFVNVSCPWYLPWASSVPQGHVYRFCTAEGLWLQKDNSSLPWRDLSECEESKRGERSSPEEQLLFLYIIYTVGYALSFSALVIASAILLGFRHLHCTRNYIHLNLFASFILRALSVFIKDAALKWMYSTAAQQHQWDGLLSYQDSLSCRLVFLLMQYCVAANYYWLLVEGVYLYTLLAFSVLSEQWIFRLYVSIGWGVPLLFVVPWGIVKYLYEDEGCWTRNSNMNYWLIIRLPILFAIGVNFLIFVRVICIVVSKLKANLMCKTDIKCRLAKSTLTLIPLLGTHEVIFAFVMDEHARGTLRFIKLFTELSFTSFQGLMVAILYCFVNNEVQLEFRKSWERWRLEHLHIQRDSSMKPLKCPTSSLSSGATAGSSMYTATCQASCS

A word on the EC50: it is the concentration at which the effect is half-maximal. Regarding `CCCCCCCCCCCCCCCC(=O)N[C@@H](CCC(=O)N[C@@H](CCC(=O)NCCCC[C@H](NC(=O)[C@H](CC(=O)O)NC(=O)[C@H](CO)NC(=O)[C@@H](NC(=O)[C@H](Cc1ccccc1)NC(=O)[C@@H](NC(=O)CNC(=O)[C@H](CCC(N)=O)NC(=O)C(C)(C)NC(=O)[C@@H](N)Cc1c[nH]cn1)[C@@H](C)O)[C@@H](C)O)C(=O)N[C@@H](CO)C(=O)N[C@@H](CCCCN)C(=O)N[C@@H](Cc1ccc(O)cc1)C(=O)N[C@@H](CC(C)C)C(=O)N[C@@H](CC(=O)O)C(=O)NC(C)(C)C(=O)N[C@@H](CCCNC(=N)N)C(=O)N[C@@H](C)C(=O)N[C@@H](C)C(=O)N[C@@H](CCC(N)=O)C(=O)N[C@@H](CC(=O)O)C(=O)N[C@@H](Cc1ccccc1)C(=O)N[C@H](C(=O)N[C@@H](CCC(N)=O)C(=O)N[C@@H](Cc1c[nH]c2ccccc12)C(=O)N[C@@H](CC(C)C)C(=O)N[C@@H](CCSC)C(=O)N[C@@H](CCCCN)C(=O)NCC(=O)N[C@@H](CCCNC(=N)N)C(=O)NCC(N)=O)C(C)C)C(=O)O)C(=O)O` [compound 23] (H-H[Aib]QGTFTSDK([γGlu-γGlu-Palmitoyl])SKYLD[Aib]RAAQDFVQWLMKGRG-NH2; N-terminus assumed), the EC50 on GIP receptor worked out at 1.58 nM; at glucagon receptor, 0.023 nM; at GLP-1 receptor it was 0.004 nM.

Turning to `CCCCCCCCCCCCCCCC(=O)N[C@@H](CCC(=O)N[C@@H](CCC(=O)NCCCC[C@H](NC(=O)[C@H](CC(=O)O)NC(=O)[C@H](CO)NC(=O)[C@@H](NC(=O)[C@H](Cc1ccccc1)NC(=O)[C@@H](NC(=O)CNC(=O)[C@H](CCC(N)=O)NC(=O)C(C)(C)NC(=O)[C@@H](N)Cc1c[nH]cn1)[C@@H](C)O)[C@@H](C)O)C(=O)N[C@@H](CO)C(=O)N[C@@H](CCCCN)C(=O)N[C@@H](Cc1ccc(O)cc1)C(=O)N[C@@H](CC(C)C)C(=O)N[C@@H](CC(=O)O)C(=O)NC(C)(C)C(=O)N[C@@H](CCCNC(=N)N)C(=O)N[C@@H](C)C(=O)N[C@@H](C)C(=O)N[C@@H](CCC(N)=O)C(=O)N[C@@H](CC(=O)O)C(=O)N[C@@H](Cc1ccccc1)C(=O)N[C@H](C(=O)N[C@@H](CCC(N)=O)C(=O)N[C@@H](Cc1c[nH]c2ccccc12)C(=O)N[C@@H](CC(C)C)C(=O)N[C@@H](CCCCN)C(=O)N[C@@H](CC(=O)O)C(=O)NCC(=O)N[C@@H](CCCNC(=N)N)C(=O)NCC(N)=O)C(C)C)C(=O)O)C(=O)O` [compound 24] (H-H[Aib]QGTFTSDK([γGlu-γGlu-Palmitoyl])SKYLD[Aib]RAAQDFVQWLKDGRG-NH2; N-terminus assumed), the EC50 on GIP receptor is 1.46 nM; on glucagon receptor, 0.021 nM; at GLP-1 receptor, 0.004 nM.

Take `CCCCCCCCCCCCCCCC(=O)N[C@@H](CCC(=O)N[C@@H](CCC(=O)NCCCC[C@H](NC(=O)[C@H](CC(=O)O)NC(=O)[C@H](CO)NC(=O)[C@@H](NC(=O)[C@H](Cc1ccccc1)NC(=O)[C@@H](NC(=O)CNC(=O)[C@H](CCC(N)=O)NC(=O)C(C)(C)NC(=O)[C@@H](N)Cc1c[nH]cn1)[C@@H](C)O)[C@@H](C)O)C(=O)N[C@@H](CO)C(=O)N[C@@H](CCCCN)C(=O)N[C@@H](Cc1ccc(O)cc1)C(=O)N[C@@H](CC(C)C)C(=O)N[C@@H](CC(=O)O)C(=O)NC(C)(C)C(=O)N[C@@H](CCCNC(=N)N)C(=O)N[C@@H](C)C(=O)N[C@@H](C)C(=O)N[C@@H](CCC(N)=O)C(=O)N[C@@H](CC(=O)O)C(=O)N[C@@H](Cc1ccccc1)C(=O)N[C@H](C(=O)N[C@@H](CCC(N)=O)C(=O)N[C@@H](Cc1c[nH]c2ccccc12)C(=O)N[C@@H](CC(C)C)C(=O)N[C@@H](CCCCN)C(=O)N[C@@H](CC(=O)O)C(=O)NCC(=O)N[C@@H](CCCNC(=N)N)C(=O)N1CCC[C@H]1C(N)=O)C(C)C)C(=O)O)C(=O)O` [compound 25] (H-H[Aib]QGTFTSDK([γGlu-γGlu-Palmitoyl])SKYLD[Aib]RAAQDFVQWLKDGRP-NH2): the figures for the EC50 at GIP receptor, at glucagon receptor and on GLP-1 receptor were 2.36 nM, 0.035 nM and 0.003 nM, respectively.

Take `CCCCCCCCCCCCCCCC(=O)N[C@@H](CCC(=O)N[C@@H](CCC(=O)NCCCC[C@H](NC(=O)[C@H](CC(=O)O)NC(=O)[C@H](CO)NC(=O)[C@@H](NC(=O)[C@H](Cc1ccccc1)NC(=O)[C@@H](NC(=O)CNC(=O)[C@H](CCC(N)=O)NC(=O)C(C)(C)NC(=O)[C@@H](N)Cc1c[nH]cn1)[C@@H](C)O)[C@@H](C)O)C(=O)N[C@@H](CO)C(=O)N[C@@H](CCCCN)C(=O)N[C@@H](Cc1ccc(O)cc1)C(=O)N[C@@H](CC(C)C)C(=O)N[C@@H](CC(=O)O)C(=O)NC(C)(C)C(=O)N[C@@H](CCCNC(=N)N)C(=O)N[C@@H](C)C(=O)N[C@@H](C)C(=O)N[C@@H](CCC(N)=O)C(=O)N[C@@H](CC(=O)O)C(=O)N[C@@H](Cc1ccccc1)C(=O)N[C@H](C(=O)N[C@@H](CCC(N)=O)C(=O)N[C@@H](Cc1c[nH]c2ccccc12)C(=O)N[C@@H](CC(C)C)C(=O)N[C@@H](CCCCN)C(=O)NC(C)(C)C(=O)NCC(=O)N[C@@H](CCCNC(=N)N)C(=O)NCC(N)=O)C(C)C)C(=O)O)C(=O)O` [compound 26] (H-H[Aib]QGTFTSDK([γGlu-γGlu-Palmitoyl])SKYLD[Aib]RAAQDFVQWLK[Aib]GRG-NH2; N-terminus assumed): the EC50 on GIP receptor was determined as 3.29 nM; at glucagon receptor, 0.106 nM; at GLP-1 receptor, 0.004 nM.

For the compound `CCCCCCCCCCCCCCCC(=O)N[C@@H](CCC(=O)NCCCC[C@H](NC(=O)[C@H](CC(=O)O)NC(=O)[C@H](CO)NC(=O)[C@@H](NC(=O)[C@H](Cc1ccccc1)NC(=O)[C@@H](NC(=O)CNC(=O)[C@H](CCC(N)=O)NC(=O)[C@@H](CO)NC(=O)[C@@H](N)Cc1c[nH]cn1)[C@@H](C)O)[C@@H](C)O)C(=O)N[C@@H](CO)C(=O)N[C@@H](CCCCN)C(=O)N[C@@H](Cc1ccc(O)cc1)C(=O)N[C@@H](CC(C)C)C(=O)N[C@@H](CC(=O)O)C(=O)N[C@@H](CCC(=O)O)C(=O)N[C@@H](CCCNC(=N)N)C(=O)N[C@@H](C)C(=O)N[C@@H](C)C(=O)N[C@@H](CCC(N)=O)C(=O)N[C@@H](CC(=O)O)C(=O)N[C@@H](Cc1ccccc1)C(=O)N[C@H](C(=O)N[C@@H](CCC(N)=O)C(=O)N[C@@H](Cc1c[nH]c2ccccc12)C(=O)N[C@@H](CC(C)C)C(=O)N[C@@H](CC(C)C)C(=O)N[C@@H](CCCCN)C(=O)NCC(=O)N[C@@H](CCCNC(=N)N)C(=O)NCC(N)=O)C(C)C)C(=O)O` [compound 27], the EC50 turned out to be 2.12 nM at GIP receptor, 0.022 nM on glucagon receptor and 0.005 nM on GLP-1 receptor.

As for `CCCCCCCCCCCCCCCC(=O)N[C@@H](CCC(=O)NCCCC[C@H](NC(=O)[C@H](CC(=O)O)NC(=O)[C@H](CO)NC(=O)[C@@H](NC(=O)[C@H](Cc1ccccc1)NC(=O)[C@@H](NC(=O)CNC(=O)[C@H](CCC(N)=O)NC(=O)[C@@H](CO)NC(=O)[C@@H](N)Cc1c[nH]cn1)[C@@H](C)O)[C@@H](C)O)C(=O)N[C@@H](CO)C(=O)N[C@@H](CCCCN)C(=O)N[C@@H](Cc1ccc(O)cc1)C(=O)N[C@@H](CC(C)C)C(=O)N[C@@H](CC(=O)O)C(=O)N[C@@H](CCC(=O)O)C(=O)N[C@@H](CCCNC(=N)N)C(=O)N[C@@H](C)C(=O)N[C@@H](C)C(=O)N[C@@H](CCC(N)=O)C(=O)N[C@@H](CC(=O)O)C(=O)N[C@@H](Cc1ccccc1)C(=O)N[C@H](C(=O)N[C@@H](CCC(N)=O)C(=O)N[C@@H](Cc1c[nH]c2ccccc12)C(=O)N[C@@H](CC(C)C)C(=O)N[C@@H](CC(C)C)C(=O)N[C@@H](CC(=O)O)C(=O)NCC(=O)N[C@@H](CCCNC(=N)N)C(=O)N[C@@H](CCCCN)C(N)=O)C(C)C)C(=O)O` [compound 28], the EC50 was 2.84 nM on GIP receptor, 0.015 nM on glucagon receptor and 0.003 nM at GLP-1 receptor.

In the case of `CCCCCCCCCCCCCCCC(=O)N[C@@H](CCC(=O)N[C@@H](CCC(=O)NCCCC[C@H](NC(=O)[C@H](CC(=O)O)NC(=O)[C@H](CO)NC(=O)[C@@H](NC(=O)[C@H](Cc1ccccc1)NC(=O)[C@@H](NC(=O)CNC(=O)[C@H](CCC(N)=O)NC(=O)C(C)(C)NC(=O)[C@@H](N)Cc1c[nH]cn1)[C@@H](C)O)[C@@H](C)O)C(=O)N[C@@H](CO)C(=O)N[C@@H](CCCCN)C(=O)N[C@@H](Cc1ccc(O)cc1)C(=O)N[C@@H](CC(C)C)C(=O)N[C@@H](CC(=O)O)C(=O)NC(C)(C)C(=O)N[C@@H](CCCNC(=N)N)C(=O)N[C@@H](C)C(=O)N[C@@H](C)C(=O)N[C@@H](CCC(N)=O)C(=O)N[C@@H](CC(=O)O)C(=O)N[C@@H](Cc1ccccc1)C(=O)N[C@H](C(=O)N[C@@H](CCC(N)=O)C(=O)N[C@@H](Cc1c[nH]c2ccccc12)C(=O)N[C@@H](CC(C)C)C(=O)N[C@@H](CC(C)C)C(=O)NC(C)(C)C(=O)NCC(=O)N[C@@H](CCCNC(=N)N)C(=O)NCC(N)=O)C(C)C)C(=O)O)C(=O)O` [compound 29] (H-H[Aib]QGTFTSDK([γGlu-γGlu-Palmitoyl])SKYLD[Aib]RAAQDFVQWLL[Aib]GRG-NH2), the EC50 at GIP receptor is 1.65 nM; on glucagon receptor, 0.014 nM; at GLP-1 receptor, 0.007 nM.

The values above are taken from patent US8729017B2 (priority 2011, dated 2014).
